In publication PMC6916368, “Cell‐Based Optimization of Covalent Reversible Ketoamide Inhibitors Bridging the Unprimed to the Primed Site of the Proteasome β5 Subunit” (Chemmedchem, 2019):

Experiments:
Assay in all cases: Cell viability endpoint assay (Celltiter Blue, 72 h)
Format in all cases: cell-based
Jurkat cells = settings: Homo sapiens, mean±SD from two independent experiments
Method in brief: (§1)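 Proteasome inhibitors were tested at 1 nM to 10 μM final on 50.000 cells/well in RPMI-1640 with 0.1 % FBS, plated overnight beforehand, at 37 °C and 5 % CO2. Reagent was incubated 120 minutes before the fluorescence read. IC50 came from a sigmoidal fit of technical triplicates, as the mean of two independent experiments.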

MV4‐11 cells = settings: Homo sapiens, MV4-11, mean±SD from two independent experiments
Method in brief: as §1

THP‐1 cells = settings: Homo sapiens, mean±SD from two independent experiments
Method in brief: as §1

In the case of `Cc1cc(C)c(Oc2ccccc2)cc1NC(=O)C(=O)[C@H](CC(C)C)NC(=O)[C@H](CC(C)C)NC(=O)[C@H](CC(C)C)NC(=O)c1cc(Cl)ccc1Cl` [Compound 27, 2,5‐Dichloro‐N‐((S)‐1‐(((S)‐1‐(((S)‐1‐((2,4‐dimethyl‐5‐phenoxyphenyl)amino)‐5‐methyl‐1,2‐dioxo‐hexan‐3‐yl)amino)‐4‐methyl‐1‐oxopentan‐2‐yl)amino)‐4‐methyl‐1‐oxopentan‐2‐yl)benzamide], the IC50 (Jurkat cells) is reported as 11 ± 1 nM, the IC50 (MV4‐11 cells) is reported as 7.4 ± 2.6 nM and the IC50 (THP‐1 cells) is reported as 66 ± 1 nM.
